{
  "source": "patent US10829446B2",
  "about": "“Aryl sulfonohydrazides” (MONASH UNIVERSITY, priority 2015, dated 2020)",
  "type_in_all_cases": "cell-based",
  "key": {"[1]": {"test_system": "Eμ-Myc pre-leukemia pre B cells", "test": "Bioassay 7: pre-B cell number dose response, Eμ-Myc", "protocol": "(§1) Pre B cells are isolated from bone marrow according to the criterion: cell surface expression of B220, CD19, but not cKit or IgM. Pre-B cells are cultured on OP9 cells with IL7 in the presence of compounds at concentrations from 0.01 μM to 20 μM in vitro for 4 days. Cell number is then enumerated and an IC50 is calculated."}, "[2]": {"test_system": "Wild type pre B cells", "test": "Bioassay 6: proliferation curves of pre-B cells on OP9 feeder layer, wild type", "text": "Pre B cells are isolated from bone marrow according to the criterion: cell surface expression of B220, CD19, but not cKit or IgM. Proliferation curves of wild type pre-B cells and Ep-Myc pre-leukemia pre B cells are generated by counting cells cultured on OP9 cell feeder layer in the presence of the growth factor IL-7. Media is changed every two days and cells are passaged every 4 days."}, "[3]": {"test_system": "Wild type pre B cells", "test": "Bioassay 7: pre-B cell number dose response, wild type", "conditions": "B-cell, 96 h; wild type Pre B cells; 4 days", "protocol": "as §1"}, "[4]": {"test_system": "Mouse embryonic fibroblasts", "test": "Bioassay 1: cellular senescence of mouse embryonic fibroblasts", "conditions": "for up regulation of β-galactosidase: […] after plating", "protocol": "(§2) Mouse embryonic fibroblasts are isolated from wild type or Moz heterozygous animals and cultured at 3% oxygen/5% carbon dioxide/92% nitrogen. Cells are plated at a density of 1,020 cells/cm^2 or 2,040 cells/cm^2 or 10,204 cells/cm^2. A reference value for MOZ inhibition is generated through comparison with cells with a complete null mutation of MOZ. The absence of a functional Moz gene leads to senescence in 7-14 days at 3% oxygen.\nCells are plated in triplicate cultures at 10,204 cells/cm^2 in the presence of a test compound. Compounds are tested at 500 nM, 1 μM, 2 μM, 5 μM, 10 μM and 20 μM. Control compounds include those that have a similar structure but show no activity in biochemical assays. After 48 hours, cells are passaged and counted, then replated at 10,204/cm^2. This procedure is continued for 336 hours. The total number of cells produced at each passage is then calculated and compared between treatment groups. […] Cells are analysed by flow cytometry for the absence of markers of apoptosis by staining with propidium iodide and FITC-conjugated annexin V. The level of DNA damaged is assessed by γH2A.X staining, a marker of DNA strand breaks."}, "[5]": {"test_system": "Cdc6 mRNA", "test": "Bioassay 2: RT-qPCR of MOZ target genes in mouse embryonic fibroblasts", "conditions": "5 μM", "protocol": "as §2\nCells are plated in triplicate at 2,040 cells/cm^2 in the presence of a test compound. Compounds are tested at 500 nM, 1 μM, 2 μM, 5 μM, 10 μM and 20 μM. Control compounds include those that have a similar structure but show no activity in biochemical assays. […] RT-qPCR is used to assay the levels of MOZ target genes Ink4a, ink4b, Arf, Cdc6, Cdca8, Cdca2, E2f2, Ezh2, Skp2 and Melk."}, "[6]": {"test_system": "wild type pre-B cells", "test": "Bioassay 9: cell cycle analysis (DNA content and BrdU)", "protocol": "Pre B cells are isolated from bone marrow according to the criterion: cell surface expression of B220, CD19, but not cKit or IgM. Pre-B cells are cultured on OP9 cells with IL7 in the presence of compounds at various concentrations. The stages of the cell cycle in pre-B cells with and without treatment is analysed using flow cytometry to assay, using a stain for DNA content combined with BrdU to determine the proportion of cells in S phase."}, "[7]": {"test_system": "wild type pro-B cells", "test": "Bioassay 5: pro-B cell colony formation in methylcellulose, wild type", "protocol": "(§3) Pro-B cells are purified by positive selection using antiCD19-magnetic beads and fluorescence activated cell sorting using the criterion: cell surface expression of B220, CD19 and cKit but not IgM. After purification, 25,000 pro-B cells are seeded onto 3.5 cm culture dishes plate containing methylcellulose (MethoCult M3630, STEM CELL technologies) for 7 days. After 7 days culture, colonies in which there were more than 50 cells are counted. Subsequently, 190,000 pro-B cells are replated into methylcellulose for another 7 days of culture, followed by enumeration."}, "[8]": {"test_system": "mouse embryonic fibroblasts transfected with control retroviral vector pBABE", "test": "Bioassay 4: cumulative cell counts, control vector pBABE", "conditions": "5 μm", "protocol": "(§4) To test if cells expressing mutant forms of RAS sensitized to senescence induction, MOZ inhibitors were combined with the ectopic expression of KRASG12V. Cells are plated in triplicate cultures at 10,204 cells/cm2 then transfected with control retroviral vectors pBABE or pBABE containing a mutant KrasG12V expression cassette. Cultures were maintained at 3% O2. Selection for transfected cells is achieved using puromycin. Compounds are tested at 0 μM 1 μM, 2.5 μM, and 5 μM. After 48 hours, cells are passaged and counted, then replated at 10,204/cm2. This procedure is continued for 336 hours. The total number of cells produced at each passage is then calculated and compared between treatment groups. Cellular senescence is determined by cell cycle arrest. Comparisons are between cells treated with vehicle only expressing the control vector, cells treated with 5 μM expressing the control vector (concentration shown in bioassay 1 to produce cellular senescence) and cells treated with 0 uM 1 μM, 2.5 μM, and 5 μM expressing the KrasV12 expressing vector vector"}, "[9]": {"test_system": "Eμ-Myc pre-leukemia pro-B cells", "test": "Bioassay 5: pro-B cell colony formation in methylcellulose, Eμ-Myc", "protocol": "as §3"}, "[10]": {"test_system": "mouse embryonic fibroblasts expressing KrasG12V", "test": "Bioassay 4: cumulative cell counts, KrasG12V expression", "conditions": "for Cumulative Cell Counts: KrasG12V", "protocol": "as §4"}},
  "data": [
    {"smiles": "Cc1cc(-c2ccccc2)cc(C(=O)NNS(=O)(=O)c2ccccc2)c1F", "note": "[Compound 36]", "values": [
      {"measurement": "IC50", "setting": "[1]; B-cell, 96 h, Eμ-Myc pre-leukemia pre B cells, 4 days", "result": 421, "unit": "nM"},
      {"measurement": "suppression of pre B cell proliferation in cells expressing the cMyc oncogene", "setting": "[1]; in words", "result": "effective in suppression of pre B cell proliferation"},
      {"measurement": "cumulative average cell number", "setting": "[2]; 1 μM, Day 4", "result": 54333},
      {"measurement": "cumulative average cell number", "setting": "[2]; 1 μM, Day 8", "result": 73474},
      {"measurement": "cumulative average cell number", "setting": "[2]; 1 μM, Day 12", "result": 15097},
      {"measurement": "cumulative average cell number", "setting": "[2]; 5 μM, Day 4", "result": 32555},
      {"measurement": "cumulative average cell number", "setting": "[2]; 5 μM, Day 8", "result": 19925},
      {"measurement": "cumulative average cell number", "setting": "[2]; 5 μM, Day 12", "result": 0.000},
      {"measurement": "cumulative average cell number", "setting": "[2]; 10 μM, Day 4", "result": 26111},
      {"measurement": "cumulative average cell number", "setting": "[2]; 10 μM, Day 8", "result": 8192},
      {"measurement": "cumulative average cell number", "setting": "[2]; 10 μM, Day 12", "result": 0.000},
      {"measurement": "proliferation of wild type B cell progenitors", "setting": "[2]; in words, compared to vehicle", "result": "inhibited"},
      {"measurement": "IC50", "setting": "[3]", "result": 364, "unit": "nM"},
      {"measurement": "up regulation of β-galactosidase", "setting": "[4]; 5 μM", "result": 186, "unit": "%"},
      {"measurement": "up regulation of β-galactosidase", "setting": "[4]; 10 μM", "result": 195, "unit": "%"},
      {"measurement": "up regulation of β-galactosidase", "setting": "[4]; 20 μM", "result": 185, "unit": "%"},
      {"measurement": "IC50", "setting": "[4]; Mus musculus, Fibroblast, read-out: IC50 (dose at which 50% senescence occur), Bioassay 1", "result": 1600, "unit": "nM"},
      {"measurement": "CDC6 mRNA % control", "setting": "[5]", "result": 65.1, "unit": "%"},
      {"measurement": "cells in G0/G1 (BrdU)", "setting": "[6]; 1 μM", "result": 54.9},
      {"measurement": "cells in G2/M (BrdU)", "setting": "[6]; 1 μM", "result": 5.5},
      {"measurement": "cells in S (BrdU)", "setting": "[6]; 1 μM", "result": 32.7},
      {"measurement": "cells in G0/G1", "setting": "[6]; in words", "result": "increase in cells in G0/G1"},
      {"measurement": "cells in S-phase", "setting": "[6]; in words", "result": "reduction of cells in S-phase"},
      {"measurement": "colony number", "setting": "[7]; 1 μM, wild type pro-B cells, primary colonies", "result": 161.25},
      {"measurement": "colony number, secondary colony formation", "setting": "[7]; 1 μM, wild type pro-B cells, secondary colony formation", "result": 12.25},
      {"measurement": "colony formation", "setting": "[7]; in words, compared to vehicle", "result": "greatly inhibits colony formation"},
      {"measurement": "Cumulative Cell Counts", "setting": "[8]; 96 h", "result": 198333.3},
      {"measurement": "Cumulative Cell Counts", "setting": "[8]; 336 h", "result": 226600},
      {"measurement": "colony number", "setting": "[9]; 1 μM, Eμ-Myc pre-leukemia pro-B cells, primary colonies", "result": 104.625},
      {"measurement": "colony number, secondary colony formation", "setting": "[9]; 1 μM, Eμ-Myc pre-leukemia pro-B cells, secondary colony formation", "result": 9.75},
      {"measurement": "proliferation and secondary colony formation of cells expressing the oncogene cMyc", "setting": "[9]; in words", "result": "equally effective in inhibiting proliferation and secondary colony formation"},
      {"measurement": "Cumulative Cell Counts", "setting": "[10]; 1 μm, 96 h", "result": 128333.3},
      {"measurement": "Cumulative Cell Counts", "setting": "[10]; 1 μm, 336 h", "result": 132000},
      {"measurement": "Cumulative Cell Counts", "setting": "[10]; 2.5 μm, 96 h", "result": 141666.7},
      {"measurement": "Cumulative Cell Counts", "setting": "[10]; 2.5 μm, 336 h", "result": 94133.33},
      {"measurement": "Cumulative Cell Counts", "setting": "[10]; 5 μm, 96 h", "result": 126666.7},
      {"measurement": "Cumulative Cell Counts", "setting": "[10]; 5 μm, 336 h", "result": 50940},
      {"measurement": "cell number in the presence of mutant KRas", "setting": "[10]; in words", "result": "dose dependent decrease in cell number"}
    ]}
  ]
}
